Source: patent US12304899B2, “Factor XI activation inhibitors” (Merck Sharp & Dohme LLC, priority 2019, dated 2025)
pEC50: −log10 of the molar value.

Target: T1, Human coagulation factor (F)XI (Homo sapiens, UniProt P03951)
T1 construct: purchased Haematologic Technologies Inc. (FXI); Enzyme Research Laboratories (FXIIa) HCXI-150 (FXI); HFXIIa (FXIIa)
Assay: Inhibition of FXIIa mediated activation of FXI (activation of human Factor XI to XIa by human Factor α-XIIa)
Type: biochemical
Conditions: human FXI pre-incubated with compound 30 min at 22° C., activation by human FXIIa 60 min, z-GPR-AFC substrate fluorescence, 4 parameter logistic fit; read-out: Inhibition of FXIIa meditated activation of FXI
Experimental: Inhibition of FXIIa Mediated Activation of FXI
Activation of Human Factor XI to XIa by Human Factor α-XIIa
The assay was performed in 50 mM HEPES, 150 mM NaCl, 5 mM CaCl2, 0.1% PEG-8000, pH 7.4 buffer in black, flat-bottom, polystyrene microplates (Corning, Cat #3573). Serial dilutions (10-point, 3.333-fold) of the test compounds delivered as 10 mM DMSO stocks were prepared in the Labcyte Echo-qualified PP 384 well microplates (Labcyte, Cat #P-05525). Human coagulation factor (F)XI (Haematologic Technologies Inc., Cat #HCXI-150, concentration 46 nM, 19.5 uL) was pre-incubated with 0.5 uL of the test compounds for 30 min at 22° C. The activation was initiated by addition of 10 uL of human coagulation factor (F)XIIa (Enzyme Research Laboratories, Cat #HFXIIa, concentration 30 nM) and the reaction proceeded for 60 min at 22° C., after which it was quenched by addition of a selective inhibitor of FXIIa (Compound 54 in International Patent Publication WO2018093695) concentration 600 uM in DMSO, 1 uL). 10 min after the quench, 29 uL of z-GPR-AFC substrate (Sigma, Cat #C0980-10 MG, concentration 200 uM) was added into each well and the detection reaction proceeded for 60 min at 22° C. Fluorescence at 405/510 nm was measured in end-point mode using an Envision plate-reader (Perkin Elmer). IDBS Activity Base XE (ABase) analysis using 4 parameter logistic fit was performed to determine Minimum, Maximum, EC50, and Slope Factor for each compound.

T1 sequence (P03951 19-625): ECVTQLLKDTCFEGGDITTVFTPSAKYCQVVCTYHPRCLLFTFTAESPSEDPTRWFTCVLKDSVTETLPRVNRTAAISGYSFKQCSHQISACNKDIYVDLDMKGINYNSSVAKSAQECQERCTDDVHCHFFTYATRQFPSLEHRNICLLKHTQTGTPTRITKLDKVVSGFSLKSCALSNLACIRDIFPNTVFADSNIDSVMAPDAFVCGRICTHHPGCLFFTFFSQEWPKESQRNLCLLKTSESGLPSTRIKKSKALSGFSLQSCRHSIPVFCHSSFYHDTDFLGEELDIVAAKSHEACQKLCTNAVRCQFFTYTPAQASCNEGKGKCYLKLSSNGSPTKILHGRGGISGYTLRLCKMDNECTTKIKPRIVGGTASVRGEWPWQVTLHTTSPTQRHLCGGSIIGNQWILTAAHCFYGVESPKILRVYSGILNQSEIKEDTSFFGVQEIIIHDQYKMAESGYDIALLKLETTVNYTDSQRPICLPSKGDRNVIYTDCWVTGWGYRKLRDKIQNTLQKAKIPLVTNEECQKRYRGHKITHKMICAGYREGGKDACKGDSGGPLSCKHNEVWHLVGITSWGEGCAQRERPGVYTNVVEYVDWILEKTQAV

pEC50	SMILES
8.02	CC1(O)CCN(C(=O)c2cc(C(=O)N3CCCCC3)c3cc(OCc4ccc5c(c4Cl)COC5=O)ccc3n2)C1 (racemic) [Example 4, rac-4-chloro-5-(((2-(3-hydroxy-3-methylpyrrolidine-1-carbonyl)-4-(piperidine-1-carbonyl)quinolin-6-yl)oxy)methyl)isobenzofuran-1(3H)-one]
7.50	Cc1c(COc2ccc3nc(C(=O)N4CCC(C)(O)C4)cc(C(=O)N4CCCCC4)c3c2)ccc2c1COC2=O (single isomer, unassigned) [Example 5a, 5-(((2-(3-hydroxy-3-methylpyrrolidine-1-carbonyl)-4-(piperidine-1-carbonyl)quinolin-6-yl)oxy)methyl)-4-methylisobenzofuran-1(3H)-one]
7.41	Cc1c(COc2ccc3nc(C(=O)N4CCC(C)(O)C4)cc(C(=O)N4CCCCC4)c3c2)ccc2c1COC2=O (single isomer, unassigned) [Example 5b, 5-(((2-(3-hydroxy-3-methylpyrrolidine-1-carbonyl)-4-(piperidine-1-carbonyl)quinolin-6-yl)oxy)methyl)-4-methylisobenzofuran-1(3H)-one]
7.66	Cc1c(COc2ccc3nc(C(=O)N4CCC(C#N)(n5cccn5)CC4)cc(C(=O)N4CCCCC4)c3c2)ccc2c1COC2=O [Example 1, 1-(6-((4-methyl-1-oxo-1,3-dihydroisobenzofuran-5-yl)methoxy)-4-(piperidine-1-carbonyl)quinoline-2-carbonyl)-4-(1H-pyrazol-1-yl)piperidine-4-carbonitrile]
7.49	N#CC1(n2cccn2)CCN(C(=O)c2cc(C(=O)N3CCCCC3)c3cc(OCc4ncc(C(F)(F)F)cc4Cl)ccc3n2)CC1 [Example 2, 1-(6-((3-chloro-5-(trifluoro-methyl)pyridin-2-yl)meth-oxy)-4-(piperidine-1-carbon-yl)quinoline-2-carbonyl)-4-(1H-pyrazol-1-yl)piperidine-4-carbonitrile]
7.40	Cc1c(COc2ccc3nc(C(=O)N4CCC(C#N)(c5ccccc5)CC4)cc(C(=O)N(C)C)c3c2)ccc2c1COC2=O [Example 3, 2-(4-cyano-4-phenylpiperidine-1-carbonyl)-N,N-dimethyl-6-((4-methyl-1-oxo-1,3-dihydroisobenzofuran-5-yl)methoxy)quinoline-4-carboxamide]
7.31	O=C(c1cc(C(=O)N2CCCCC2)c2cc(OCc3ccc4nnsc4c3)ccc2n1)N1CCC(n2cccn2)CC1 [Example 6, (4-(1H-pyrazol-1-yl)piperidin-1-yl)(6-(benzo[d][1,2,3]thiadiazol-6-ylmethoxy)-4-(piperidine-1-carbonyl)quinolin-2-yl)methanone]
7.71	O=C(c1cc(C(=O)N2CCCCC2)c2cc(OCc3ccc4snnc4c3)ccc2n1)N1CCC(n2cccn2)CC1 [Example 7, (4-(1H-pyrazol-1-yl)piperidin-1-yl)(6-(benzo[d][1,2,3]thiadiazol-5-ylmethoxy)-4-(piperidine-1-carbonyl)quinolin-2-yl)methanone]
7.73	O=C(c1cc(C(=O)N2CCCCC2)c2cc(OCCCc3cccnc3)ccc2n1)N1CCC(n2cccn2)CC1 [Example 8, (4-(1H-pyrazol-1-yl)piperidin-1-yl)(4-(piperidine-1-carbon-yl)-6-(3-(pyridin-3-yl)pro-poxy)quinolin-2-yl)methanone]
7.40	N#Cc1ccc(COc2ccc3nc(C(=O)N4CCC(n5cccn5)CC4)cc(C(=O)N4CCCCC4)c3c2)cc1 [Example 9, 4-(((2-(4-(1H-pyrazol-1-yl)-piperidine-1-carbonyl)-4-(piperidine-1-carbonyl)-quinolin-6-yl)oxy)methyl) benzonitrile]
7.66	O=C(c1cc(C(=O)N2CCCCC2)c2cc(OCc3ccc(C(F)(F)F)nc3)ccc2n1)N1CCC(n2cccn2)CC1 [Example 10, (4-(1H-pyrazol-1-yl)piperidin-1-yl)(4-(piperidine-1-carbon-yl)-6-((6-(trifluoromethyl)-pyridin-3-yl)methoxy)-quinolin-2-yl)methanone]
7.46	O=C(c1cc(C(=O)N2CCCCC2)c2cc(OCc3cn4c(F)cccc4n3)ccc2n1)N1CCC(n2cccn2)CC1 [Example 11, (4-(1H-pyrazol-1-yl)piperidin-1-yl)(6-((5-fluoroimidazo[1,2-a]pyridin-2-yl)methoxy)-4-(piperidine-1-carbonyl)-quinolin-2-yl)methanone]
7.77	O=C(c1cc(C(=O)N2CCCCC2)c2cc(OCc3ncc(C(F)(F)F)cc3Cl)ccc2n1)N1CCC(n2cccn2)CC1 [Example 12, (4-(1H-pyrazol-1-yl)piperidin-1-yl)(6-((3-chloro-5-(trifluoro-methyl)pyridin-2-yl)methoxy)-4-(piperidine-1-carbonyl)-quinolin-2-yl)methanone]
7.70	N#Cc1ccc(COc2ccc3nc(C(=O)N4CCC(n5cccn5)CC4)cc(C(=O)N4CCCCC4)c3c2)cc1F [Example 13, 4-(((2-(4-(1H-pyrazol-1-yl)-piperidine-1-carbonyl)-4-(piperidine-1-carbonyl)-quinolin-6-yl)oxy)methyl)-2-fluorobenzonitrile]
7.83	O=C(c1cc(C(=O)N2CCCCC2)c2cc(OCc3ccc4nonc4c3)ccc2n1)N1CCC(n2cccn2)CC1 [Example 14, (4-(1H-pyrazol-1-yl)piperidin-1-yl)(6-(benzo[c][1,2,5]-oxadiazol-5-ylmethoxy)-4-(piperidine-1-carbonyl)-quinolin-2-yl)methanone]
7.63	Cn1nnc2cc(COc3ccc4nc(C(=O)N5CCC(n6cccn6)CC5)cc(C(=O)N5CCCCC5)c4c3)ccc21 [Example 15, (4-(1H-pyrazol-1-yl)piperidin-1-yl)(6-((1-methyl-1H-benzo-[d][1,2,3]triazol-5-yl)methoxy)-4-(piperidine-1-carbonyl)-quinolin-2-yl)methanone]
7.48	N#Cc1ccc(COc2ccc3nc(C(=O)N4CCC(n5cccn5)CC4)cc(C(=O)N4CCCCC4)c3c2)c(F)c1 [Example 16, 4-(((2-(4-(1H-pyrazol-1-yl)-piperidine-1-carbonyl)-4-(piperidine-1-carbonyl)-quinolin-6-yl)oxy)methyl)-3-fluorobenzonitrile]
7.29	Cn1ncc2cc(COc3ccc4nc(C(=O)N5CCC(n6cccn6)CC5)cc(C(=O)N5CCCCC5)c4c3)ccc21 [Example 17, (4-(1H-pyrazol-1-yl)piperidin-1-yl)(6-((1-methyl-1H-indazol-5-yl)methoxy)-4-(piperidine-1-carbonyl)quinolin-2-yl) methanone]
7.66	Cc1c(COc2ccc3nc(C(=O)N4CCC(n5cccn5)CC4)cc(C(=O)N4CCCCC4)c3c2)ccc2c1COC2=O [Example 18, 5-(((2-(4-(1H-pyrazol-1-yl)-piperidine-1-carbonyl)-4-(piperidine-1-carbonyl)-quinolin-6-yl)oxy)methyl)-4-methylisobenzofuran-1(3H)-one]
7.50	O=C1OCc2cc(COc3ccc4nc(C(=O)N5CCC(n6cccn6)CC5)cc(C(=O)N5CCCCC5)c4c3)ccc21 [Example 19, 5-(((2-(4-(1H-pyrazol-1-yl)-piperidine-1-carbonyl)-4-(piperidine-1-carbonyl)-quinolin-6-yl)oxy)methyl)-isobenzofuran-1(3H)-one]
7.45	O=C1OCc2ccc(COc3ccc4nc(C(=O)N5CCC(n6cccn6)CC5)cc(C(=O)N5CCCCC5)c4c3)cc21 [Example 20, 6-(((2-(4-(1H-pyrazol-1-yl)-piperidine-1-carbonyl)-4-(piperidine-1-carbonyl)-quinolin-6-yl)oxy)methyl)-isobenzofuran-1(3H)-one]
7.46	O=C(c1cc(C(=O)N2CCCCC2)c2cc(OCc3ccc(Cl)cc3)ccc2n1)N1CCC(n2cccn2)CC1 [Example 21, (4-(1H-pyrazol-1-yl)piperidin-1-yl)(6-((4-chlorobenzyl)oxy)-4-(piperidine-1-carbonyl)quin-olin-2-yl)methanone]
7.35	O=C(c1cc(C(=O)N2CCCCC2)c2cc(OCc3cc4ccccn4n3)ccc2n1)N1CCC(n2cccn2)CC1 [Example 22, (4-(1H-pyrazol-1-yl)piperidin-1-yl)(4-(piperidine-1-carbon-yl)-6-(pyrazolo[1,5-a]pyridin-2-ylmethoxy)quinolin-2-yl) methanone]
7.44	O=C(c1cc(C(=O)N2CCCCC2)c2cc(OCc3nc4ccccc4o3)ccc2n1)N1CCC(n2cccn2)CC1 [Example 23, (4-(1H-pyrazol-1-yl)piperidin-1-yl)(6-(benzo[d]oxazol-2-ylmethoxy)-4-(piperidine-1-carbonyl)quinolin-2-yl) methanone]
7.54	Cn1c(COc2ccc3nc(C(=O)N4CCC(n5cccn5)CC4)cc(C(=O)N4CCCCC4)c3c2)nc2ccccc21 [Example 24, (4-(1H-pyrazol-1-yl)piperidin-1-yl)(6-((1-methyl-1H-benzo-[d]imidazol-2-yl)methoxy)-4-(piperidine-1-carbonyl)-quinolin-2-yl)methanone]
